Laboratory results as given in ChEMBL document CHEMBL5029162, “4-Pyridone-3-carboxylic acid as a benzoic acid bioisostere: Design, synthesis, and evaluation of EP300/CBP histone acetyltransferase inhibitors” (Bioorg Med Chem Lett, 2021).
pIC50: −log10 of the molar value.

How the values were obtained:
[1] = biological target: Histone acetyltransferase KAT6B (Homo sapiens, UniProt Q8WYB5); experiment: Inhibition of MYST4 (unknown origin)
[2] = biological target: Histone acetyltransferase KAT2A (Homo sapiens, UniProt Q92830); experiment: Inhibition of GCN5 (unknown origin)
CREB-binding protein = CREB-binding protein (Homo sapiens, UniProt Q92793); experiment: Inhibition of CBP (unknown origin)
Chain of CREB-binding protein (Q92793 whole entry): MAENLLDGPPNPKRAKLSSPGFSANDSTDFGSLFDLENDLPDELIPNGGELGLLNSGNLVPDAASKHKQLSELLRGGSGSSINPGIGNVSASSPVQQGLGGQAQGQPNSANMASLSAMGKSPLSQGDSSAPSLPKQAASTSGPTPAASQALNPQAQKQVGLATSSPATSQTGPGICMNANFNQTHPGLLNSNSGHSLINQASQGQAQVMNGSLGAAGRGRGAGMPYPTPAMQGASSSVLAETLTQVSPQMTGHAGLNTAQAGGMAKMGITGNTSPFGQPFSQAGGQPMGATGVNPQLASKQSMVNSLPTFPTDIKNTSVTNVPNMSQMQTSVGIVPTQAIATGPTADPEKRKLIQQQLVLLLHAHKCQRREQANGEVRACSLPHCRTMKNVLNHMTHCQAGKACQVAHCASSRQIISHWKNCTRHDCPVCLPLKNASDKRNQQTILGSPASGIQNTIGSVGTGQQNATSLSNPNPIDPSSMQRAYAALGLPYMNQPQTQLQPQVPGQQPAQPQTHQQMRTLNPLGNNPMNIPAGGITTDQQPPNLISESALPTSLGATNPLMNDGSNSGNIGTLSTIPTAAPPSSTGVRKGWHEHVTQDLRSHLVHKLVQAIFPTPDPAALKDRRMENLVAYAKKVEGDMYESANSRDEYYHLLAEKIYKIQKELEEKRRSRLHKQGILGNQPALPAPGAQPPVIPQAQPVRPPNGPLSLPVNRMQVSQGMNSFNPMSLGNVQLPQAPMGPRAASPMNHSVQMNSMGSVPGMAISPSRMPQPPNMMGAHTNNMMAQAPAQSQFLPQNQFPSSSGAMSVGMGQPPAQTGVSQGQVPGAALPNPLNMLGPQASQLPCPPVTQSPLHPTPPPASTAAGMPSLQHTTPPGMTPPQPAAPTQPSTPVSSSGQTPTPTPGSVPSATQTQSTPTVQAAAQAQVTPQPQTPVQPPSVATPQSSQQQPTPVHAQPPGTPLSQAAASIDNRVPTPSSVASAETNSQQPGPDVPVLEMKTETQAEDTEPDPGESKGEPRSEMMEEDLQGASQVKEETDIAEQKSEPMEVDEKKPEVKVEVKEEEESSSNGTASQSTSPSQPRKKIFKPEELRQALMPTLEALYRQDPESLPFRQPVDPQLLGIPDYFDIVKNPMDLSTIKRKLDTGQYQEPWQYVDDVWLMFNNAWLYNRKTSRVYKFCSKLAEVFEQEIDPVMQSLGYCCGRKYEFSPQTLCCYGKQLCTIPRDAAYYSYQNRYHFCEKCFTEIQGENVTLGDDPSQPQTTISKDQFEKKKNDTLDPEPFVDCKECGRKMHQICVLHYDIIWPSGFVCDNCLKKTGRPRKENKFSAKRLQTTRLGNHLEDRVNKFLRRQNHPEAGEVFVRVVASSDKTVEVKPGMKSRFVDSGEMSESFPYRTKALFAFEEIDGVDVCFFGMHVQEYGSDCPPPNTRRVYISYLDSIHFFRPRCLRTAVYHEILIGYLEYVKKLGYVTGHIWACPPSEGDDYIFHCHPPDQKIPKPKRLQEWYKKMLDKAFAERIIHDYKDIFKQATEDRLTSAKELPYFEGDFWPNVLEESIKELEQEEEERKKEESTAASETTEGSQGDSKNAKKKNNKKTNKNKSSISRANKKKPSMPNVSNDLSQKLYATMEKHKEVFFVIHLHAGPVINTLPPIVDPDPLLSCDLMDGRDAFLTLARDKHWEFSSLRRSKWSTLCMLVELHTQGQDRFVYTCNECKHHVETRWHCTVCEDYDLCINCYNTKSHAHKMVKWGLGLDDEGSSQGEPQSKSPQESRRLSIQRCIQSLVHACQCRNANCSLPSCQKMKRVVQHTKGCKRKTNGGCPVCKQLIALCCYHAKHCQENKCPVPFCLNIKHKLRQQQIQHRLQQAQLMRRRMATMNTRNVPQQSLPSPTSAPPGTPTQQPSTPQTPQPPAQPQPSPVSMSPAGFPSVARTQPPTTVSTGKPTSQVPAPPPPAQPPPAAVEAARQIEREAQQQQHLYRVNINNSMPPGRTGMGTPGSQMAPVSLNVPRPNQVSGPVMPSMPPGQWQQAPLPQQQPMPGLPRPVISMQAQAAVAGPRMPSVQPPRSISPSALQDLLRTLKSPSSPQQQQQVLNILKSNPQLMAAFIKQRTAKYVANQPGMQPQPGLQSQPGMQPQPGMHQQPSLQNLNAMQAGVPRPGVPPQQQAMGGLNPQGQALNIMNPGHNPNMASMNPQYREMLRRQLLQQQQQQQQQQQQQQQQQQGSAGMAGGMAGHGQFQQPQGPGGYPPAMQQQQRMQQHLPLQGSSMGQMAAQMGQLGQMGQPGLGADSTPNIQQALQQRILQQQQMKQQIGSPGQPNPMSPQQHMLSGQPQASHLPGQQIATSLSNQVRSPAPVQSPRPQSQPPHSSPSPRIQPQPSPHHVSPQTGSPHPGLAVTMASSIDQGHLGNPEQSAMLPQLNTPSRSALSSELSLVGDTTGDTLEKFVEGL

Chain of Histone acetyltransferase KAT2A (Q92830 whole entry): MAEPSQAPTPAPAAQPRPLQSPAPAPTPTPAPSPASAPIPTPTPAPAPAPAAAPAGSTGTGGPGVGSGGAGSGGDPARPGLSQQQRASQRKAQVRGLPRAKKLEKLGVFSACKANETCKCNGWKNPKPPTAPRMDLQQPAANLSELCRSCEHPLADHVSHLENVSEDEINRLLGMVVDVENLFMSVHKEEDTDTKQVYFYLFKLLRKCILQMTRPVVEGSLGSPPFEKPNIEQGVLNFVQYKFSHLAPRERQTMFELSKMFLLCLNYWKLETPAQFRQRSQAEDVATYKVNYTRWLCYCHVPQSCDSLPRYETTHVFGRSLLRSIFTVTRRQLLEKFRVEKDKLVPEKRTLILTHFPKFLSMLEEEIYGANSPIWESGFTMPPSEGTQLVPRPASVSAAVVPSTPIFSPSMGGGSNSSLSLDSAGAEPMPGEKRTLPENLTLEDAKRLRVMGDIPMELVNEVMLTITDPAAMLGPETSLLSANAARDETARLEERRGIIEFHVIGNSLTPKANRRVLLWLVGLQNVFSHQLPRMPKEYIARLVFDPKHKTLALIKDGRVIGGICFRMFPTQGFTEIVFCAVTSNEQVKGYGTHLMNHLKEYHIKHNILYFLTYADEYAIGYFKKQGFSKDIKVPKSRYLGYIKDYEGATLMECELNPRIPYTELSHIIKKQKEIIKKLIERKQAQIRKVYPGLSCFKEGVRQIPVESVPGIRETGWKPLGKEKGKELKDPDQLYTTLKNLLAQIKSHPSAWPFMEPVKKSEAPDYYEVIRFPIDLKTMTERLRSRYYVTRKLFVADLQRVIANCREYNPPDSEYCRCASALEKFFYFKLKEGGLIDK

With `COC1=C(Cc2ccc(-c3cn(C)cc(C(=O)O)c3=O)s2)C(=O)N(c2ccc3ccccc3c2)C1` the pIC50 [1] was < 4.30, the pIC50 [2] was < 4.30 and the pIC50 (CREB-binding protein) was 5.47.

`COC1=C(Cc2ccc(-c3cn(Cc4ccccc4)cc(C(=O)O)c3=O)s2)C(=O)N(c2ccc3ccccc3c2)C1` was tested, and the pIC50 [1] was < 4.30, the pIC50 [2] was < 4.30 and the pIC50 (CREB-binding protein) was 5.89.
